In patent publication US20160346320A1, “SUBSTANCE FOR INHIBITING TISSUE CALCIFICATION, TISSUE FIBROSATION AND AGE-RELATED DISEASES” (Fresenius Kabi Deutschland GmbH, priority 2013, published 2016):
“Also recorded” adds a separate entry of the source.

Experiments:
[1] = system: TGFβ1 mRNA; format: cell-based, human
[2] = system: NFAT5; assay: NFAT5 expression in aortas of klotho mice; format: in vivo; conditions: NH4Cl 0.28 M in drinking water
[3] = system: Runx2 mRNA; format: cell-based, human
[4] = system: SOX9; assay: SOX9 expression in HAoSMCs, quantitative RT-PCR; format: cell-based, human; conditions: NH4Cl 500 μM
Description: (§1) The following experimental studies were executed: Primary human aortic smooth muscle cells (HAoSMCs, Invitrogen) were cultivated in Waymouth's MB 752/1 medium and Ham's F12 nutrient mixture (1:1, Gibco, Life Technologies) with the addition of 10% FBS (Gibco, Life Technologies). In all experiments, confluent HAoSMCs, passages 4 to 11, were used. The cells were treated for 24 hours with 2 mM β-glycerophosphate (Sigma-Aldrich) with or without simultaneous addition of 0.5 mM ammonium salts or 100 μM chloroquine diphosphate (Sigma-Aldrich). Quantitative RT-PCR (real time polymerase chain reaction) were carried out, as described previously (Voelkl, J., Alesutan, I., Leibrock, C. B., Quintanilla-Martinez, L., Kuhn, V., Feger, M., Mia, S., Ahmed, M. S., Rosenblatt, K. P., Kuro, O., Lang, F.: Spironolactone ameliorates PIT1-dependent vascular osteoinduction in klotho-hypomorphic mice. J. Clin Invest 2013; February 1; 123(2):812-22). For this, HAoSMCs were washed and total RNA were isolated using Trifast reagent (Peqlab) according to the directions from the manufacture. […] The total RNA were likewise isolated with Trifast reagent (Peqlab) in accordance with the directions from the manufacture. In each case, 2 μg RNA of the human as well as the murine samples were used for the reverse transcription of the RNA with oligo(dT)12-18 primers (Invitrogen) and SuperScripIII Reverse Transcriptase (Invitrogen). Quantitative real-time PCR were carried out with an iCycler iQ™ Real-Time PCR Detection System (Bio-Rad Laboratories) and iQ™ Sybr Green Supermix (Bio-Rad Laboratories) according to the manufacturer's instructions. The following primers were used (5′ orientation): […]
(§2) The specificity of the PCR products was checked by means of melting curve analysis and agarose gel electrophoresis. All PCRs were each carried out twice, and the multiple mRNA quantities were calculated by means of the […] methods with GAPDH as the internal reference.

[5] = system: alkaline phosphatase (ALP) mRNA; format: cell-based, human
[6] = system: NFAT5; assay: NFAT5 expression in HAoSMCs, quantitative RT-PCR; format: cell-based, human; conditions: NH4Cl 500 μM
Description: as §1, §2

[7] = growth and body weight of klotho mice; format: in vivo; conditions: for body weight / growth deficit: NH4Cl 0.28 M or acetazolamide 800 mg/l in drinking water
[8] = blood chemistry: plasma concentrations in klotho mice; format: in vivo; conditions: NH4Cl 0.28 M or acetazolamide 800 mg/l in drinking water
[9] = HAoSMCs transfected with NFAT5, 2 mM β-glycerophosphate
[10] = HAoSMCs transfected with empty vectors, 2 mM β-glycerophosphate
[11] = HAoSMCs, 2 mM β-glycerophosphate

Compound | TGFβ1 mRNA expression increase [1] | Runx2 mRNA expression increase [3] | ALP mRNA expression increase [5] | body weight [7] | growth deficit [7] | further results
Cl.N [ammonium chloride, Ammonium chloride] | inhibit the formation of TGFβ1; also recorded: prevented | inhibit the expression; also recorded: suppressed | reduce the expression; also recorded: suppression of the expression increase | nearly entirely neutralize the weight deficiency | nearly entirely neutralized | expression of NFAT5 in aortas [2]: normalization of the transcription level; expression of SOX9 [4, 9]: prevents the effect of NH4Cl; also recorded: remained high; expression of SOX9 [4, 10]: sink back to a normal level; transcription level of SOX9 [4, 11]: reduced the expression; expression of NFAT5 [6, 9]: remained high; expression of NFAT5 [6, 10]: sink back to a normal level; transcription level of NFAT5 [6, 11]: reduced the expression; also recorded: reverse the increase; growth ([7]; wild mice (klotho^+/+), NH4Cl 0.28 M in drinking water): no growth stimulation
N.N.O=S(=O)(O)O [ammonium sulfate, Ammonium sulfate] | inhibit the formation of TGFβ1; also recorded: lessened | inhibit the expression; also recorded: suppressed | reduce the expression; also recorded: suppression of the expression increase |  |  | 
Ammonium citrate | inhibit the formation of TGFβ1; also recorded: lessened |  |  |  |  | 
CC(=O)Nc1nnc(S(N)(=O)=O)s1 [acetazolamide] |  |  |  | could be increased | could not be fully compensated | concentration of matrix gla protein (MGP) in plasma [8]: fully normalize
CCN(CC)CCCC(C)Nc1ccnc2cc(Cl)ccc12 (racemic) [chloroquine, (RS)—N′-(7-chloroquinoline-4-yl)-N,N-diethyl-pentane-1,4-diamine] |  |  | reduce the expression; also recorded: suppression of the ALP mRNA expression increase |  |  | 
CC(O)C(=O)O.N (stereo not shown) [ammonium lactate, Ammonium lactate] | inhibit the formation of TGFβ1; also recorded: lessened |  |  |  |  | 
